Assay results taken from patent US10392348B2, “2-oxo-3,4-dihydroquinoline compounds as plant growth regulators” (Syngenta Participations AG, priority 2015, dated 2019).
Where two headings read alike, the source gives them in different places.

Columns and labels:
[1] = system: soybean plants (variety S20-G7); test: Reduced plant water use in soybean (foliar spray, repeated weighing of pots); type: in vivo; details: vs negative control; for change in vivo at 500 µM / change in vivo at 31.25 µM / change in vivo at 125 µM: Glycine max, foliar; for % WU 0 DAA AM*: 0 DAA a.m.
Protocol: Compounds were tested for their effect on reducing plant water use as follows. Each compound was dissolved in a blank emulsifiable concentrate (EC) formulation that was then diluted to the desired concentration with water containing additional surfactant (EXTRAVON 1 g/20 L). The compounds were applied by foliar spray to 12 day old soybean plants (variety S20-G7) grown in controlled environment plant growth chambers. Plant water use during the day was assessed by repeated weighing of the pots in which the plants were grown before and after application of the compounds at the indicated times (expressed in days after application (DAA)). The water use data before application was used to correct any differences in water use arising due to non-treatment effects (e.g. due to differences in plant size). The untransformed water use values were subjected to an analysis of covariance, fitting the effect of treatment and using the baseline water use 1 day before application as a covariate.
The results are expressed compared to negative control treatment (diluted EC formulation without active ingredient but with EXTRAVON 1 g/20 L).
Application of the chemicals (0 DAA) takes place approximately between 08:00 and 09:30 a.m. WU is measured within day time (chamber light is on 06:00 to 20:00) at these timepoints: 0 DAA a.m. (10:30-12:50), 0 DAA p.m. (14:00-19:50), 1 DAA a.m. (7:30-12:50), 1 DAA p.m. (14:00-19:50), 2 DAA a.m. (07:30-12:50) and 2 DAA p.m. (14:00-19:50). The cumulative total WU (0-2.5 DAA) is calculated by summing the WU data mentioned above.

[2] = 0 h, Table B1, sprayed at 500 μM, 0 DAA a.m. (10:30-12:50), read-out: % WU 0 DAA AM
[3] = 24 h, Table B1, sprayed at 500 μM, 1 DAA a.m. (7:30-12:50), read-out: % WU 1DAA AM
[4] = 24 h, Table B1, sprayed at 500 μM, 1 DAA p.m. (14:00-19:50), read-out: % WU 1DAA PM
[5] = 48 h, Table B1, sprayed at 500 μM, 2 DAA a.m. (07:30-12:50), read-out: % WU 2 DAA AM
[6] = 48 h, Table B1, sprayed at 500 μM, 2 DAA p.m. (14:00-19:50), read-out: % WU 2 DAA PM
[7] = 60 h, Table B1, sprayed at 500 μM, cumulative total WU (0-2.5 DAA), read-out: % WU Total 0 to 2.5 DAA

Structure (SMILES)	melting point [°C]	change in vivo at 500 µM [1, 2] [%]	change in vivo at 500 µM [1, 3] [%]	change in vivo at 500 µM [1, 4] [%]	change in vivo at 500 µM [1, 5] [%]	change in vivo at 500 µM [1, 6] [%]	change in vivo at 500 µM [1, 7] [%]	also measured
CCN1C(=O)CCc2cc(CNS(=O)(=O)c3cn(C)cn3)ccc21 [Compound 2.063, N-[(1-ethyl-2-oxo-3,4-dihydroquinolin-6-yl)methyl]-1-methyl-imidazole-4-sulfonamide]	165 to 167							
CCN1C(=O)CCc2cc(CNS(=O)(=O)c3ccc(C)cc3C)ccc21 [Compound 2.014, N-[(1-ethyl-2-oxo-3,4-dihydroquinolin-6-yl)methyl]-2,4-dimethyl-benzenesulfonamide]	199 to 200	-2.8	-0.2	-0.9	-0.9	-1.7	-1.1	
CCN1C(=O)CCc2cc(CNS(=O)(=O)c3ccc(OC)cc3)ccc21 [Compound 2.010, N-[(1-ethyl-2-oxo-3,4-dihydroquinolin-6-yl)methyl]-4-methoxy-benzenesulfonamide]	147 to 150	-15.2	-2.6	-1.7	-3.6	-2.4	-4.3	
CCCN1C(=O)CCc2cc(CNS(=O)(=O)c3ccc(C)cc3C)ccc21	166 to 167							
CCN1C(=O)CCc2cc(CNS(=O)(=O)c3ccccc3)ccc21 [Compound 2.001, N-[(1-ethyl-2-oxo-3,4-dihydroquinolin-6-yl)methyl]benzenesulfonamide]	114 to 124	-35.3	-29.1	-28.1	-19.6	-14.3	-25.7	change in vivo at 31.25 µM ([1]; 24 h, Table B2, rate 31.25 uM, 1 DAA a.m., read-out: % WU 1DAA AM): -1.8%; change in vivo at 31.25 µM ([1]; 24 h, Table B2, rate 31.25 uM, 1 DAA p.m., read-out: % WU 1DAA PM): -0.9%; change in vivo at 125 µM ([1]; 24 h, Table B2, rate 125 uM, 1 DAA a.m., read-out: % WU 1DAA AM): -10.1%; change in vivo at 125 µM ([1]; 24 h, Table B2, rate 125 uM, 1 DAA p.m., read-out: % WU 1DAA PM): -10.9%; change in vivo at 500 µM ([1]; 24 h, Table B2, rate 500 uM, 1 DAA a.m., read-out: % WU 1DAA AM): -36.3%; change in vivo at 500 µM ([1]; 24 h, Table B2, rate 500 uM, 1 DAA p.m., read-out: % WU 1DAA PM): -33.2%; change in vivo at 31.25 µM ([1]; 48 h, Table B2, rate 31.25 uM, 2 DAA a.m., read-out: % WU 2 DAA AM): -2.7%; change in vivo at 31.25 µM ([1]; 48 h, Table B2, rate 31.25 uM, 2 DAA p.m., read-out: % WU 2 DAA PM): -1.5%; change in vivo at 125 µM ([1]; 48 h, Table B2, rate 125 uM, 2 DAA a.m., read-out: % WU 2 DAA AM): -11.7%; change in vivo at 125 µM ([1]; 48 h, Table B2, rate 125 uM, 2 DAA p.m., read-out: % WU 2 DAA PM): -10.1%; change in vivo at 500 µM ([1]; 48 h, Table B2, rate 500 uM, 2 DAA a.m., read-out: % WU 2 DAA AM): -24.2%; change in vivo at 500 µM ([1]; 48 h, Table B2, rate 500 uM, 2 DAA p.m., read-out: % WU 2 DAA PM): -19.5%; change in vivo at 31.25 µM ([1]; 60 h, Table B2, rate 31.25 uM, cumulative total WU (0-2.5 DAA), read-out: % WU Total 0 to 2.5 DAA): -1.7%; change in vivo at 125 µM ([1]; 60 h, Table B2, rate 125 uM, cumulative total WU (0-2.5 DAA), read-out: % WU Total 0 to 2.5 DAA): -11.1%; change in vivo at 500 µM ([1]; 60 h, Table B2, rate 500 uM, cumulative total WU (0-2.5 DAA), read-out: % WU Total 0 to 2.5 DAA): -31.8%; % WU 0 DAA AM* ([1]; Table B2, rate 31.25 uM): −0.7%; % WU 0 DAA AM* ([1]; Table B2, rate 125 uM): −10.4%; % WU 0 DAA AM* ([1]; Table B2, rate 500 uM): −41.2%
CCN1C(=O)CCc2cc(CNS(=O)(=O)/C=C/c3ccc(C)cc3)ccc21 [Compound 2.059, (E)-N-[(1-ethyl-2-oxo-3,4-dihydroquinolin-6-yl)methyl]-2-(p-tolyl)ethenesulfonamide]	151 to 153							
CCN1C(=O)CCc2cc(CNS(=O)(=O)C3CC3)ccc21 [Compound 2.018, N-[(1-ethyl-2-oxo-3,4-dihydroquinolin-6-yl)methyl]cyclopropanesulfonamide]	104 to 106							
CCN1C(=O)CCc2cc(CNS(=O)(=O)c3ccccc3C)ccc21 [Compound 2.011, N-[(1-ethyl-2-oxo-3,4-dihydroquinolin-6-yl)methyl]-2-methyl-benzenesulfonamide]	203 to 206							
CCN1C(=O)CCc2cc(CNS(=O)(=O)c3ccc(C)cc3)ccc21 [Compound 2.012, N-[(1-ethyl-2-oxo-3,4-dihydroquinolin-6-yl)methyl]-4-methyl-benzenesulfonamide]	202 to 203							
CCN1C(=O)CCc2cc(CNS(=O)(=O)c3cc(Cl)sc3Cl)ccc21 [Compound 2.064, 2,5-dichloro-N-[(1-ethyl-2-oxo-3,4-dihydroquinolin-6-yl)methyl]thiophene-3-sulfonamide]	198 to 201							

More lines, main results first:

melting point [°C]	Structure (SMILES)	change in vivo at 500 µM [1, 2] [%]	change in vivo at 500 µM [1, 3] [%]	change in vivo at 500 µM [1, 4] [%]	change in vivo at 500 µM [1, 5] [%]	change in vivo at 500 µM [1, 6] [%]	change in vivo at 500 µM [1, 7] [%]	also measured
138 to 139	CCCN1C(=O)CCc2cc(CNS(=O)(=O)c3ccc(OC(C)C)cc3)ccc21 [Compound 3.016, 4-isopropoxy-N-[(2-oxo-1-propyl-3,4-dihydroquinolin-6-yl)methyl]benzenesulfonamide]	-3.6	-1.3	-0.5	-1.1	0	-1.2	
153 to 154	CCCN1C(=O)CCc2cc(CNS(=O)(=O)c3ccc(C)cc3)ccc21 [Compound 3.012, 4-methyl-N-[(2-oxo-1-propyl-3,4-dihydroquinolin-6-yl)methyl]benzenesulfonamide]	-43.9	-1.8	2.1	1.7	3	-5.8	
204 to 206	CCCn1c(=O)ccc2cc(CNS(=O)(=O)c3ccccc3)ccc21 [Compound 7.001, N-[(2-oxo-1-propyl-6-quinolyl)methyl]benzenesulfonamide]	-17.1	-9.1	-6.9	-6.9	-2.5	-8.8	
138 to 140	CCCN1C(=O)CCc2cc(CNS(=O)(=O)c3ccc(C(F)(F)F)cc3)ccc21 [Compound 3.015, N-[(2-oxo-1-propyl-3,4-dihydroquinolin-6-yl)methyl]-4-(trifluoromethyl)benzenesulfonamide]							
172 to 174	CCCN1C(=O)CCc2cc(CNS(=O)(=O)/C=C/c3ccc(C)cc3)ccc21 [Compound 3.059, (E)-N-[(2-oxo-1-propyl-3,4-dihydroquinolin-6-yl)methyl]-2-(p-tolyl)ethenesulfonamide]							
151 to 153	CCCN1C(=O)CCc2cc(CNS(=O)(=O)c3cccs3)ccc21 [Compound 3.072, N-[(2-oxo-1-propyl-3,4-dihydroquinolin-6-yl)methyl]thiophene-2-sulfonamide]	-39.4	-45.9	-40.9	-39.8	-32.2	-40.1	
176 to 179	CCCN1C(=O)CCc2cc(CNS(=O)(=O)c3cccc4ccccc34)ccc21 [Compound 3.074, N-[(2-oxo-1-propyl-3,4-dihydroquinolin-6-yl)methyl]naphthalene-1-sulfonamide]	-8.6	0	1	-1.5	0	-1.4	
148 to 153	CCCN1C(=O)CCc2cc(CNS(=O)(=O)/C=C/c3cccc(Br)c3)ccc21 [Compound 3.070, (E)-2-(3-bromophenyl)-N-[(2-oxo-1-propyl-3,4-dihydroquinolin-6-yl)methyl]ethenesulfonamide]							
